# From patent US10301272B2, “Carboxamide or sulfonamide substituted thiazoles and related derivatives as modulators for the orphan nuclear receptor ROR[γ]” (Phenex Pharmaceuticals AG, priority 2012, dated 2019)
# Where two headings read alike, the source gives them in different places.
# Tests used:
# [1] = target: RORγ ligand binding domain (LBD) (Homo sapiens (Human), UniProt P51449); test: TR-FRET Activity Assay (ligand sensing assay, LANCE); conditions: for pIC50 (FRET): TR-FRET, interaction of RORγ-LBD with coactivator peptide
# RORγ ligand binding domain (LBD), sequence (P51449 269-508): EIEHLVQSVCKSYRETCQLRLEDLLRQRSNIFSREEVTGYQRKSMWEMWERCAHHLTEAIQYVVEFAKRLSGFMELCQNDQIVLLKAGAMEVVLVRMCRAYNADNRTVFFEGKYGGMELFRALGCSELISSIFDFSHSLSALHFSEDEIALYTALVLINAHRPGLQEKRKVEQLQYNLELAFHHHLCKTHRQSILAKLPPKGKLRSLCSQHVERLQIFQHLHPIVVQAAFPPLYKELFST
# Excerpt: The ligand-binding domain (LBD) of RORγ was expressed as fusion protein with GST in BL-21 (BL3) cells using the vector pDEST15. Cells were lysed by lysozyme-treatment and sonication, and the fusion proteins purified over glutathione sepharose (Pharmacia) according to the manufacturers instructions. For screening of compounds for their influence on the RORγ-peptide interaction, the LANCE technology (Perkin Elmer) was applied. This method relies on the binding dependent energy transfer from a donor to an acceptor fluorophor attached to the binding partner of interest. For ease of handling and reduction of background from compound fluorescence LANCE technology makes use of generic fluorophore labels and time resolved detection assays were done in a final volume of 25 μL in a 384 well plate, in a Tris-based buffer system (20 mM Tris-HCl pH 6.8; 60 mM KCl, 1 mM DTT; 5 mM MgCl2; 35 ng/μL BSA), containing 20-60 ng/well recombinantly expressed RORγ-LBD fused to GST, 200-600 nM N-terminally biotinylated peptide, 200 ng/well Streptavidin-xlAPC conjugate (Prozyme) and 6-10 ng/well Eu W1024-antiGST (Perkin Elmer). DMSO content of the samples was kept at 1%.
# After generation of the Tris-based buffer system, the potentially RORγ modulating ligands were diluted. […] The LANCE signal was detected by a Perkin Elmer EnVision™ Multilabel Counter. […] Ligands that promote the complex formation induce a concentration-dependent increase in time-resolved fluorescent signal.
# Y is the response. Y starts at Bottom and goes to Top with a sigmoidal shape.
# This is identical to the “four parameter logistic equation”. The IC50 values are calculated using this equation.
# RORγ = RORγ (Homo sapiens, UniProt P51449); test: RORγ Gal4 Reporter Gene Assay; type: cell-based
# RORγ, sequence (P51449 whole entry, looked up, the tested form may be a part): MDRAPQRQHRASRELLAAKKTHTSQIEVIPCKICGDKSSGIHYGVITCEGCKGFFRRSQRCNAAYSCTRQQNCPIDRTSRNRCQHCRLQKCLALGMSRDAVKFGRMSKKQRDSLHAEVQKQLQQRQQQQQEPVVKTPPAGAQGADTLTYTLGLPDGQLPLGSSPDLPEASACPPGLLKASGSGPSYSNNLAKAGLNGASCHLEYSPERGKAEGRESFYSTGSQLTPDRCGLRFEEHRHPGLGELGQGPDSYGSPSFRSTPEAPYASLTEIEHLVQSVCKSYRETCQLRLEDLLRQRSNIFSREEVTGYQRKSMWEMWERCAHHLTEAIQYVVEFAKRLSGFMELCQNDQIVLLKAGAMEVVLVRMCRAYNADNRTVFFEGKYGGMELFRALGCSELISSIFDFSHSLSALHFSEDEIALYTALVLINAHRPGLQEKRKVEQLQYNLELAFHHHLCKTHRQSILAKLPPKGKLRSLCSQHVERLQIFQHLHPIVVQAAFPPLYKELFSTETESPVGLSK
# Method in brief: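 Cells at 5×10^5/well were transfected with RORγ fragments fused to the GAL4 DNA-binding domain (CMV promoter), a 5×GAL4-site firefly luciferase reporter and CMV-Renilla luciferase for normalization. About 4 h later serum-free MEM and compound were added (vehicle ≤0.1%). Cultures at 37 °C, 5% CO2; at least triplicates.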
# [2] = firefly (FF) luciferase, 293T cells, read-out: pIC50 (FF) (converted)
# [3] = renilla normalised (RENnorm) luciferase, 293T cells, read-out: pIC50 (REN) (converted)
# [4] = firefly (FF) luciferase, 293T cells
# [5] = renilla normalised (RENnorm) luciferase, 293T cells
Structure (SMILES),pIC50 (FRET) [1],pIC50 (FF) (RORγ),pIC50 (REN) (RORγ),IC50 (RORγ; [2]) [nM],IC50 (RORγ; [3]) [nM],IC50 [1] [nM],pIC50 (FF) (RORγ; [4]),pIC50 (REN) (RORγ; [5])
CC(C)(O)CNC(=O)c1nc(CC2CCCCC2)c(-c2ncc(S(=O)(=O)NC(C)(C)C)c3ccccc23)s1 [19/6],6.4/7.7/7.7,6.4/7.7/7.7,6.4/7.7/7.7,–,–,–,–,–
CC1CC(C)CN(C(=O)c2nc(C(=O)NCC(C)(C)O)sc2-c2ccc(S(=O)(=O)NC(C)(C)C)c3ccccc23)C1 (stereo not drawn) [304/8],6.0/6.9/6.9,6.0/6.9/6.9,6.0/6.9/6.9,–,–,–,–,–
CC(C)(C)NS(=O)(=O)c1ccc(-c2sc(C(=O)N[C@H]3C[C@H](C(=O)O)C3)nc2CC2CCCCC2)c(F)c1C(F)F [7/15],6.7/8.7/8.5,6.7/8.7/8.5,6.7/8.7/8.5,–,–,–,–,–
CC(C)(O)CNC(=O)c1nc(CC2CCCCC2)c(-c2ccc(S(=O)(=O)NC(C)(C)C)c(Cl)c2Cl)o1 [100/15],6.4/7.4/7.5,6.4/7.4/7.5,6.4/7.4/7.5,–,–,–,–,–
CC(C)(C)NS(=O)(=O)c1ccc(-c2sc(C(=O)NN3CCOCC3)nc2CC2CCCCC2)c(Cl)c1Cl [6/20],6.9,6.9/8.7/8.7,6.9/8.7/8.7,–,–,–,–,–
O=C(NC1CCS(=O)(=O)CC1)c1nc(CC2CCCCC2)c(-c2ccc(N3CCOCC3)c3ccccc23)s1 [7/27],6.5,6.5/6.9/6.9,6.5/6.9/6.9,–,–,–,–,–
"CC(C)(C)c1cc(-c2nc(C(N)=O)ncc2CC2CCCCC2)cc(C(C)(C)C)c1 [Example 206, 5-(Cyclohexylmethyl)-4-(3,5-di-tert-butylphenyl)pyrimidine-2-carboxamide]",5.9/6.3/6.2,5.9/6.3/6.2,5.9/6.3/6.2,–,–,–,–,–
"CC(C)(C)c1cc(-c2nc(C(N)=O)oc2CC2CCCCC2)cc(C(C)(C)C)c1 [Example 101, 5-(Cyclohexylmethyl)-4-(3,5-di-tert-butylphenyl)oxazole-2-carboxamide]",6.0,–,–,> 20000,> 20000,–,–,–
CC(C)(O)c1ccc(-c2sc(C(=O)NC3CCS(=O)(=O)CC3)nc2CC2CCCCC2)c2ccccc12 [7/23],–,<4.7/6.8/6.7,<4.7/6.8/6.7,–,–,> 20000,–,–
CC(C)(C)c1cc(-c2ccc(C(N)=O)cc2CC2CCCCC2)cc(C(C)(C)C)c1 [Example 209],6.4/6.2/6.2,6.4/6.2/6.2,6.4/6.2/6.2,–,–,–,–,–
CC(C)(CO)NS(=O)(=O)c1ccc(-c2sc(C(=O)N3CC4(CCS(=O)(=O)CC4)C3)nc2CC2CCCCC2)c2ccccc12 [Example 14/1],6.2/7.1/7.1,6.2/7.1/7.1,6.2/7.1/7.1,–,–,–,–,–
CC(C)(C)NS(=O)(=O)c1ccc(-c2sc(C(=O)NC3CCS(=O)(=O)CC3)nc2CC2CCCCC2)cc1C(C)(C)O [6/26],6.6/7.7/7.8,6.6/7.7/7.8,6.6/7.7/7.8,–,–,–,–,–
"CC(C)(C)c1cc(-c2sc(C(=O)N[C@H]3C[C@H](C(=O)O)C3)[n+]([O-])c2CC2CCCCC2)cc(C(C)(C)C)n1 [Example 22, 2-(((trans)-3-Carboxycyclobutyl)carbamoyl)-4-(cyclohexylmethyl)-5-(2,6-di-tert-butylpyridin-4-yl)thiazole 3-oxide]",–,–,–,–,–,398,7.1,7.1
"CC(C)(C)c1cc(-c2sc(S(N)(=O)=O)nc2CC2CCCCC2)cc(C(C)(C)C)c1 [Example 4, 4-(Cyclohexylmethyl)-5-(3,5-di-tert-butylphenyl)thiazole-2-sulfonamide]",6.8/6.4/6.4,6.8/6.4/6.4,6.8/6.4/6.4,–,–,–,–,–
C[C@H](NS(=O)(=O)c1ccc(-c2sc(C(=O)NC3CCOCC3)nc2CC2CCCCC2)c2ccccc12)C(F)(F)F [6/12],–,–,–,2,2,126,–,–
CC(C)(C)NS(=O)(=O)c1ccc(-c2oc(C(=O)NC3CCC(C)(C(=O)O)CC3)nc2CC2CCCCC2)c2ccccc12 (stereo not drawn) [100/22],5.9/6.8/7.0,5.9/6.8/7.0,5.9/6.8/7.0,–,–,–,–,–
"CC(C)(C)NS(=O)(=O)c1ccc(-c2oc(C(=O)NC3CCS(=O)(=O)CC3)nc2CC2CCC2)c2ccccc12 [Example 104, 5-(4-(N-(tert-Butyl)sulfamoyl)naphthalen-1-yl)-4-(cyclobutylmethyl)-N-(1,1-dioxidotetrahydro-2H-thiopyran-4-yl)oxazole-2-carboxamide]",6.6/7.5/7.9,6.6/7.5/7.9,6.6/7.5/7.9,–,–,–,–,–
CC(C)(C)NS(=O)(=O)c1ccc(-c2sc(C(=O)NCC3(O)CCS(=O)(=O)CC3)nc2CC2CCCCC2)c2ccccc12 [6/5],6.6/8.5/8.7,6.6/8.5/8.7,6.6/8.5/8.7,–,–,–,–,–
CC(C)(C)c1cc(-c2sc(C(=O)NC3CC(C(=O)O)C3)nc2CC2CCCCC2)nc(C2(C)CC2)n1 (stereo not drawn) [19/12],6.1,–,–,–,–,–,6.8,6.7
COc1ccc(-c2sc(C(=O)N[C@H]3C[C@H](C(=O)O)C3)nc2CC2CCCCC2)c2ccccc12 [7/20],–,–,–,251,251,> 20000,–,–
"CC(C)(CCNC(=O)c1nc(CC2CCCCC2)c(-c2cc(C(C)(C)C)cc(C3(C)CC3)c2)s1)C(=O)O [Example 7, 4-(5-(3-(tert-Butyl)-5-(1-methylcyclopropyl)phenyl)-4-(cyclohexylmehthyl)thiazole-2-carboxamido)-2,2-dimethylbutanoic acid]",6.3/7.0/7.0,6.3/7.0/7.0,6.3/7.0/7.0,–,–,–,–,–
CC(C)(C)NS(=O)(=O)c1ccc(-c2oc(C(=O)N3CC4(CCS(=O)(=O)CC4)C3)nc2CC2CCCCC2)c2ccccc12 [100/9],6.3/8.5/8.5,6.3/8.5/8.5,6.3/8.5/8.5,–,–,–,–,–
"COC(=O)C(C)(C)CCNC(=O)c1nc(CC2CCCCC2)c(-c2cc(C(C)(C)C)cc(C3(C)CC3)c2)s1 [Example 6, Methyl 4-(5-(3-(tert-butyl)-5-(1-methylcyclopropyl)phenyl)-4-(cyclohexylmethyl)thiazole-2-carboxamido)-2,2-dimethylbutanoate]",6.7/6.2/6.3,6.7/6.2/6.3,6.7/6.2/6.3,–,–,–,–,–
CC(C)(C)NS(=O)(=O)c1ccc(-c2oc(C(=O)NC34CCC(C(=O)O)(CC3)CC4)nc2CC2CCCCC2)c2ccccc12 [100/14],5.8/7.9/7.9,5.8/7.9/7.9,5.8/7.9/7.9,–,–,–,–,–
CC(C)(C)NS(=O)(=O)c1ccc(-c2oc(C(=O)NCC3(O)CCS(=O)(=O)CC3)nc2CC2CCCCC2)c2ccccc12 [100/8],6.5/8.0/8.2,6.5/8.0/8.2,6.5/8.0/8.2,–,–,–,–,–
CC(C)(O)CNC(=O)c1nc(CC2CCCCC2)c(-c2ccc(S(=O)(=O)NC(C)(C)C)c3cccc(F)c23)s1 [19/14],6.4/6.8/6.9,6.4/6.8/6.9,6.4/6.8/6.9,–,–,–,–,–
CC(C)(C)c1cc(-c2sc(C(=O)N[C@H]3C[C@H](C(=O)O)C3)nc2CC2CCCCC2)cc(C(C)(C)C)n1 [8/8],–,–,–,63.1,79.4,501,–,–
CC(C)(O)CNC(=O)c1nc(CC2CCC2)c(-c2ccc(S(=O)(=O)NC(C)(C)C)c3ccccc23)s1 [21/2],6.8/8.4/8.5,6.8/8.4/8.5,6.8/8.4/8.5,–,–,–,–,–
